Measured values taken from patent publication US20240245691A1 (Sitryx Therapeutics Limited, priority 2021, published 2024).
Like-named read-outs stand apart in the source and are kept apart here.

What was measured:
IL-1β = experiment: THP-1 AlphaLISA IL-1β cytokine assay (differentiated THP-1 cells); assay type: cell-based; settings: Homo sapiens
Procedure: (§1) Measuring Inhibitory Effects on IL-1V Cytokine and IL-6 Output from THP-1s
(§2) The cytokine inhibition profiles of compounds of formula (I) were determined in a differentiated THP-1 cell assay. All assays were performed in RPMI-1640 growth medium (Gibco), supplemented with 10% fetal bovine serum (FBS; Gibco), 1% penicillin-streptomycin and 1% sodium pyruvate unless specified otherwise. The IL-1β and IL-6 cytokine inhibition assays were run in a background of differentiated THP-1 cells as described below. All reagents described were from Sigma-Aldrich unless specified otherwise. Compounds were prepared as 10 mM DMSO stocks.
(§3) THP-1 cells were expanded as a suspension up to 80% confluence in appropriate growth medium. Cells were harvested, suspended, and treated with an appropriate concentration of phorbol 12-myristate 13-acetate (PMA) over a 72 hr period (37° C./5% CO2).
(§4) Following 72 hrs of THP-1 cell incubation, cellular medium was removed and replaced with fresh growth media containing 1% of FBS. Working concentrations of compounds were prepared separately in 10% FBS treated growth medium and pre-incubated with the cells for 30 minutes (37° C./5% CO2). Following the 30 minute compound pre-incubation, THP-1s were treated with an appropriate concentration of LPS and the THP-1s were subsequently incubated for a 24 hr period (37° C./5% CO2). An appropriate final concentration of Nigericin was then dispensed into the THP-1 plates and incubated for 1 hour (37° C./5% CO2) before THP-1 supernatants were harvested and collected in separate polypropylene 96-well holding plates.
(§5) Reagents from each of the IL-1β and IL-6 commercial kits (Perkin Elmer) were prepared and run according to the manufacturer's instructions. Subsequently, fluorescence signal detection in a microplate reader was measured (EnVision® Multilabel Reader, Perkin Elmer).
(§6) Percentage inhibition was calculated per cytokine by normalising the sample data to the high and low controls used within each plate (+/−LPS respectively).
(§7) Dimethyl itaconate and 4-octyl itaconate were included as comparator compounds.

IL-6 = experiment: THP-1 AlphaLISA IL-6 cytokine assay (differentiated THP-1 cells); assay type: cell-based
Procedure: as §1, §2, §3, §4, §5, §6, §7

[1] = Hepatocyte stability assay, human; assay type: in vitro ADME; settings: human, hepatocytes, T½
From the text: (§8) Defrosted cryo-preserved hepatocytes (viability>70%) were used to determine the metabolic stability of a compound via calculation of intrinsic clearance (CIint; a measure of the removal of a compound from the liver in the absence of blood flow and cell binding). Clearance data are particularly important for in vitro work as they can be used in combination with in vivo data to predict the half-life and oral bioavailability of a drug.
(§9) The metabolic stability in hepatocytes assay involved a time-dependent reaction using both positive and negative controls. The cells must be pre-incubated at 37° C. then spiked with test compound (and positive control); samples taken at pre-determined time intervals were analysed to monitor the change in concentration of the initial drug compound over 60 minutes. A buffer incubation reaction (with no hepatocytes present) acted as a negative control and two cocktail solutions, containing compounds with known high and low clearance values (verapamil/7-hydroxycoumarin and propranolol/diltiazem), acted as positive controls. • 1. The assay was run with a cell concentration of 0.5×10^6 cells/mL in Leibovitz buffer. • 2. All compounds and controls were run in duplicate. • 3. Compound concentration was 10 μM. • 4. All compounds and controls were incubated with both cells and buffer to show turnover is due to hepatic metabolism. • 5. All wells on the incubation plate had 326.7 μL of either cells or buffer added. • 6. Prior to assay, cell and buffer-only incubation plates were preincubated for 10 mins at 37° C. • 7. The assay was initiated by adding compounds, 3.3 μL of 1 mM in 10% DMSO-90% Buffer; final DMSO concentration is 0.1%. • 8. Samples were taken at regular timepoints (0, 5, 10, 20, 40, 60 min) until 60 mins. • 9. Sample volume was 40 μL and added to 160 μL of crash solvent (acetonitrile with internal standard) and stored on ice. • 10. At the end of the assay, the crash plates were centrifuged at 3500 rpm for 20 mins at 4° C. • 11. 80 μL of clear supernatant was removed and mixed with 80 μL of deionised water before being analysed by LC-MS/MS.
(§10) Raw LC-MS/MS data were exported to, and analysed in, Microsoft Excel for determination of intrinsic clearance. The percentage remaining of a compound was monitored using the peak area of the initial concentration as 100%. Intrinsic clearance and half-life values were calculated using a graph of the natural log of percentage remaining versus the time of reaction in minutes.
(§11) 4-Octyl itaconate was included as a comparator compound.

[2] = test system: cryo-preserved hepatocytes; experiment: Hepatocyte stability assay, human; assay type: in vitro ADME; settings: human, hepatocytes
From the text: as §8, §9, §10, §11

[3] = Hepatocyte stability assay, mouse; assay type: in vitro ADME; settings: mouse, hepatocytes, T½
From the text: as §8, §9, §10, §11

[4] = test system: cryo-preserved hepatocytes; experiment: Hepatocyte stability assay, mouse; assay type: in vitro ADME; settings: mouse, hepatocytes
From the text: as §8, §9, §10, §11

[5] = Homo sapiens, THP-1, read-out: IL-6 (IC50)
[6] = THP-1, differentiated THP-1 cells, LPS 24 hr then Nigericin 1 hour, read-out: IL-1β (IC50)
[7] = Homo sapiens, THP-1, differentiated THP-1 cells, LPS 24 hr then Nigericin 1 hour, read-out: IL-6 (IC50)

SMILES	IC50 (IL-1β; THP-1, read-out: IL-1β (IC50))	IC50 (IL-6; [5])	half-life at 10 μM [1]	Clint [2]	half-life at 10 μM [3]	Clint [4]	IC50 (IL-1β; [6])	IC50 (IL-6; [7])	IC50 (IL-1β; THP-1, differentiated THP-1 cells, footnote a: data from repeated experiments, read-out: IL-1β (IC50), data from repeated experiments)	IC50 (IL-6; differentiated THP-1 cells, LPS 24 hr then Nigericin 1 hour, read-out: IL-6 (IC50))
C=C(CC(=O)N[C@@H](C)c1ccc(C(F)(F)F)cc1)C(=O)OC1(C)COC1 [Example 28, 3-methyloxetan-3-yl (S)-2-methylene-4-oxo-4-((1-(4-(trifluoromethyl)phenyl)ethyl)amino)butanoate]	10.5 µM	5.6 µM	0.3 h	80 μL min^−1 10^−6 cells	< 0.05 h	>460 μL min^−1 10^−6 cells				
C=C(CC(=O)N[C@@H](C)c1ccc(C(F)(F)F)cn1)C(=O)OC1CS(=O)(=O)C1 [Example 33, 1,1-dioxidothietan-3-yl (S)-2-methylene-4-oxo-4-((1-(5-(trifluoromethyl)pyridin-2-yl)ethyl)amino)butanoate]			0.183 h	151 μL min^−1 10^−6 cells	0.167 h	205 μL min^−1 10^−6 cells	1.82 µM	3.64 µM		
C[C@H](NC(=O)C/C(=C/c1ccccc1)C(=O)O)c1ccc(C(F)(F)F)cc1 [Example 48, (S,Z)-2-benzylidene-4-oxo-4-((1-(4-(trifluoromethyl)phenyl)ethyl)amino)butanoic acid]			3.73 h	7 μL min^−1 10^−6 cells	0.267 h	95 μL min^−1 10^−6 cells	2.3 µM	> 100 µM		
C=C(CC(=O)N[C@@H](C)c1ccc(Br)cc1)C(=O)O [Example 16, (S)-4-((1-(4-bromophenyl)ethyl)amino)-2-methylene-4-oxobutanoic acid]			4.68 h	6 μL min^−1 10^−6 cells	4.1 h	7 μL min^−1 10^−6 cells	3.8 µM	> 56.2 µM	4.9 µM	
C=C(CC(=O)N[C@@H](C)c1ccc(S(F)(F)(F)(F)F)cc1)C(=O)O [Example 56, (S)-2-methylene-4-oxo-4-((1-(4-(pentafluoro-A6-sulfaneyl)phenyl)ethyl)amino)butanoic acid]			> 7.67 h	<3 μL min^−1 10^−6 cells	2.77 h	11 μL min^−1 10^−6 cells	3.3 µM	> 100 µM		
C=C(CC(=O)N[C@H](c1ccc(C(F)(F)F)cc1)C(F)(F)F)C(=O)O [Example 21, (R)-2-methylene-4-oxo-4-((2,2,2-trifluoro-1-(4-(trifluoromethyl)phenyl)ethyl)amino)butanoic acid]			> 7.67 h	<3 μL min^−1 10^−6 cells	0.367 h	76 μL min^−1 10^−6 cells	4 µM	> 100 µM		
C=C(CC(=O)NC1CCc2cc(C(F)(F)F)ccc21)C(=O)O (stereo not shown) [Example 40, 2-methylene-4-oxo-4-((5-(trifluoromethyl)-2,3-dihydro-1H-inden-1-yl)amino) butanoic acid]			> 7.67 h	<3 μL min^−1 10^−6 cells	> 7.67 h	<3 μL min^−1 10^−6 cells	26.9 µM	> 100 µM		
C=C(CC(=O)N[C@@H](C)c1ccc(SC(F)(F)F)cc1)C(=O)O [Example 17]			3.72 h	8 μL min^−1 10^−6 cells	1.58 h	16 μL min^−1 10^−6 cells	13.9 µM	> 31.6 µM		
C[C@H](NC(=O)C/C(=C\c1ccccc1)C(=O)O)c1ccc(C(F)(F)F)cc1 [Example 47, (S,E)-2-benzylidene-4-oxo-4-((1-(4-(trifluoromethyl)phenyl)ethyl)amino)butanoic acid]			> 7.67 h	<3 μL min^−1 10^−6 cells	2.2 h	12 μL min^−1 10^−6 cells	> 100 µM	> 100 µM		
C=C(CC(=O)N[C@@H](C)c1ccc(C(F)(F)F)cn1)C(=O)O [Example 30, (S)-2-methylene-4-oxo-4-((1-(5-(trifluoromethyl)pyridin-2-yl)ethyl)amino) butanoic acid]			> 7.67 h	<3 μL min^−1 10^−6 cells	> 7.67 h	<3 μL min^−1 10^−6 cells	9.2 µM	> 100 µM		
CC(C)C/C=C(\CC(=O)N[C@@H](C)c1ccc(C(F)(F)F)cc1)C(=O)O [Example 45, (S,E)-5-methyl-2-(2-oxo-2-((1-(4-(trifluoromethyl)phenyl)ethyl)amino)ethyl)hex-2-enoic acid]			3.83 h	8 μL min^−1 10^−6 cells	0.793 h	30 μL min^−1 10^−6 cells	2.1 µM	> 31.6 µM		
C=C(CC(=O)N[C@@H](C)c1ccc(C(F)(F)F)c(F)c1)C(=O)O [Example 19, (S)-4-((1-(3-fluoro-4-(trifluoromethyl)phenyl)ethyl)amino)-2-methylene-4-oxobutanoic acid]			7.28 h	4 μL min^−1 10^−6 cells	6.7 h	4 μL min^−1 10^−6 cells	8.8 µM	> 31.6 µM		
C=C(CC(=O)NC1(c2ccc(C(F)(F)F)cc2)CC1)C(=O)O [Example 11, 2-methylene-4-oxo-4-((1-(4-(trifluoromethyl)phenyl)cyclopropyl)amino)butanoic acid]			> 7.67 h	<3 μL min^−1 10^−6 cells	> 7.67 h	<3 μL min^−1 10^−6 cells	8.3 µM	> 100 µM		
C[C@H](NC(=O)C/C(=C\CN(C)C)C(=O)O)c1ccc(C(F)(F)F)cc1 [Example 49, (S,E)-4-(dimethylamino)-2-(2-oxo-2-((1-(4-(trifluoromethyl)phenyl)ethyl)amino)ethyl)but-2-enoic acid]	16.5 µM	> 100 µM	> 7.67 h	<3 μL min^−1 10^−6 cells	> 7.67 h	<3 μL min^−1 10^−6 cells				
C=C(C(=O)O)C(C)C(=O)N[C@@H](C)c1ccc(C(F)(F)F)cc1 (single isomer, unassigned; isomer 1) [Example 54]			> 7.67 h	<3 μL min^−1 10^−6 cells	6.67 h	4 μL min^−1 10^−6 cells	31 µM			> 100 µM
